Tests used:
Assay in all cases: relative viability (nuclei count vs DMSO), 5 days (fraction); higher = more cells survive
[1] = compound: COc1nc(N)nc2c1ncn2[C@@H]1O[C@H](CO)[C@@H](O)[C@@H]1O [Nelarabine] + COc1cc2c(Oc3ccc(NC(=O)C4(C(=O)Nc5ccc(F)cc5)CC4)cc3F)ccnc2cc1OCCCN1CCOCC1 [Foretinib] (partner 0.25 µM)
In short: (§1)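 For relative viability, nuclei counts in treated wells were divided by those in vehicle wells. Lung cancer cell lines had been pin-tool dosed in 1536-well plates the day after seeding and cultured for 5 days, then fixed and stained in one step (final 0.05% Triton X-100, 1% formaldehyde, 1 ug/ml Hoechst) and imaged at 4×. Doses were one drug alone or a fixed anchor-drug dose plus five library-drug doses (not always all listed) in √10 steps, and values are duplicate-plate medians.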

[2] = compound: COc1nc(N)nc2c1ncn2[C@@H]1O[C@H](CO)[C@@H](O)[C@@H]1O [Nelarabine] + CC(=O)Nc1cccc(-n2c(=O)n(C3CC3)c(=O)c3c(Nc4ccc(I)cc4F)n(C)c(=O)c(C)c32)c1 [Trametinib] (partner 0.02 µM)
In short: as §1

[3] = compound: C=CCn1c(=O)c2cnc(Nc3ccc(N4CCN(C)CC4)cc3)nc2n1-c1cccc(C(C)(C)O)n1 [Adavosertib] + N=C(N)NC(=N)NCCc1ccccc1 [Phenformin] (partner 250 µM)
In short: as §1

[4] = compound: COc1nc(N)nc2c1ncn2[C@@H]1O[C@H](CO)[C@@H](O)[C@@H]1O [Nelarabine] + CC1(C)CCC(c2ccc(Cl)cc2)=C(CN2CCN(c3ccc(C(=O)NS(=O)(=O)c4ccc(N[C@H](CCN5CCOCC5)CSc5ccccc5)c(S(=O)(=O)C(F)(F)F)c4)cc3)CC2)C1 [Navitoclax] (partner 0.5 µM)
In short: as §1

## EMC-BAC-2
[1]; first compound 0.01 µM
  relative viability: 1.06
[1]; first compound 0.03162 µM
  relative viability: 1
[1]; first compound 0.1 µM
  relative viability: 0.913
[1]; first compound 0.3162 µM
  relative viability: 0.975
[1]; first compound 1 µM
  relative viability: 0.963
[2]; first compound 0.01 µM
  relative viability: 0.895
[2]; first compound 0.03162 µM
  relative viability: 1.02
[2]; first compound 0.1 µM
  relative viability: 0.819
[2]; first compound 0.3162 µM
  relative viability: 0.821
[2]; first compound 1 µM
  relative viability: 0.916
[3]; first compound 0.01 µM
  relative viability: 0.547
[3]; first compound 0.03162 µM
  relative viability: 0.557
[3]; first compound 0.1 µM
  relative viability: 0.519
[3]; first compound 0.3162 µM
  relative viability: 0.479
[4]; first compound 0.01 µM
  relative viability: 1.45
[4]; first compound 0.03162 µM
  relative viability: 1.11
[4]; first compound 0.1 µM
  relative viability: 1.25
[4]; first compound 0.3162 µM
  relative viability: 1.38
[4]; first compound 1 µM
  relative viability: 1.16

From the supplement of paper PMC10307832
